#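 96-well plates; 48 h exposure; 5 concentrations. Endpoints by linear interpolation between flanking doses. Not reached: highest tested concentration assigned. The concentration for 50% growth inhibition is given as GI50.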 Calls of active or inactive are those of the source. Rule as the data show it: active = GI50 up to about 1.1 µM and inactive = higher.
# How the values were obtained:
# Test in all cases: NCI anticancer screen, dose series, 48 h
# [1] = tested on: UACC-257
# [2] = tested on: SK-MEL-2
# [3] = tested on: CAKI-1
# [4] = tested on: DU-145
# [5] = tested on: Malme-3M
# [6] = tested on: RXF 393
# [7] = tested on: HCT-15
# [8] = tested on: SK-MEL-28
# [9] = tested on: HCC 2998
# [10] = tested on: IGROV-1
# [11] = tested on: OVCAR-5
# [12] = tested on: HOP-62
# [13] = tested on: SN12C
# [14] = tested on: OVCAR-3
# [15] = tested on: MDA-MB-231
# [16] = tested on: NCI-H23
# [17] = tested on: HCT-116
# [18] = tested on: SF-295
# [19] = tested on: MDA-N
Compound,GI50 [1],GI50 [2],GI50 [3],GI50 [4],GI50 [5],GI50 [6],GI50 [7] [µM],GI50 [8],GI50 [9],GI50 [10],GI50 [11],GI50 [12],GI50 [13],GI50 [14],GI50 [15],GI50 [16],GI50 [17],GI50 [18],GI50 [19]
O=CC1C(Cl)=Nc2nc3ccccc3n2C1c1ccc([N+](=O)[O-])cc1 (stereo not given),13.6 µM (inactive),6.03 µM (inactive),3.09 µM (inactive),4.74 µM (inactive),8.13 µM (inactive),2.93 µM (inactive),2.93,2.51 µM (inactive),14 µM (inactive),12.3 µM (inactive),21.1 µM (inactive),8.28 µM (inactive),15.4 µM (inactive),3.85 µM (inactive),14.9 µM (inactive),7.96 µM (inactive),3.73 µM (inactive),23.2 µM (inactive),–
COc1cc(COC(=O)NC(Cc2cccs2)C(=O)O)c([N+](=O)[O-])cc1OC (stereo not given),> 100 µM (inactive),–,–,> 100 µM (inactive),> 100 µM (inactive),> 100 µM (inactive),> 100,> 100 µM (inactive),> 100 µM (inactive),> 100 µM (inactive),> 100 µM (inactive),> 100 µM (inactive),> 100 µM (inactive),> 100 µM (inactive),–,> 100 µM (inactive),> 100 µM (inactive),> 100 µM (inactive),> 100 µM (inactive)
O=c1cc(N2CCOCC2)n2c(ccc3ccccc32)n1,> 100 µM (inactive),> 100 µM (inactive),> 100 µM (inactive),–,> 100 µM (inactive),> 100 µM (inactive),> 100,–,> 100 µM (inactive),> 100 µM (inactive),> 100 µM (inactive),> 100 µM (inactive),> 100 µM (inactive),> 100 µM (inactive),> 100 µM (inactive),> 100 µM (inactive),> 100 µM (inactive),> 100 µM (inactive),31.7 µM (inactive)
NC(=O)c1cc(-c2ccc(-n3ccnc3)cc2)nnc1O,> 100 µM (inactive),–,> 100 µM (inactive),> 100 µM (inactive),> 100 µM (inactive),> 100 µM (inactive),> 100,> 100 µM (inactive),> 100 µM (inactive),> 100 µM (inactive),> 100 µM (inactive),> 100 µM (inactive),> 100 µM (inactive),–,–,> 100 µM (inactive),> 100 µM (inactive),–,> 100 µM (inactive)
COc1cc(Nc2cnc3cc(F)c(F)cc3n2)cc(OC)c1,> 100 µM (inactive),> 100 µM (inactive),> 100 µM (inactive),> 100 µM (inactive),> 100 µM (inactive),12.2 µM (inactive),> 100,> 100 µM (inactive),–,> 100 µM (inactive),> 100 µM (inactive),25.9 µM (inactive),> 100 µM (inactive),> 100 µM (inactive),–,20.8 µM (inactive),58.1 µM (inactive),36 µM (inactive),> 100 µM (inactive)
CCOC(=O)Nn1c(C)cc(C(=O)OC)c1C,> 100 µM (inactive),> 100 µM (inactive),> 100 µM (inactive),–,> 100 µM (inactive),> 100 µM (inactive),> 100,> 100 µM (inactive),> 100 µM (inactive),> 100 µM (inactive),> 100 µM (inactive),> 100 µM (inactive),> 100 µM (inactive),> 100 µM (inactive),–,> 100 µM (inactive),> 100 µM (inactive),> 100 µM (inactive),–
CCOC(=O)/C1=C(\C)N(c2ccc(C)cc2)C(=O)c2ccccc2C(=O)c2c(OC(C)=O)ccc(OC(C)=O)c21,21.8 µM (inactive),24 µM (inactive),13.3 µM (inactive),31.8 µM (inactive),28.1 µM (inactive),22.2 µM (inactive),16.4,< 0.01 µM (active),–,4.01 µM (inactive),21.9 µM (inactive),18.5 µM (inactive),20.4 µM (inactive),16.5 µM (inactive),12.9 µM (inactive),19.9 µM (inactive),15.3 µM (inactive),14.5 µM (inactive),–
CC(=O)OC1[C@H]2c3cc4c(cc3CN3CCC(=C[C@@H]1O)C23)OCO4 (stereo not given in full),46.9 µM (inactive),–,–,–,> 100 µM (inactive),> 100 µM (inactive),> 100,23.4 µM (inactive),34.8 µM (inactive),> 100 µM (inactive),–,> 100 µM (inactive),> 100 µM (inactive),> 100 µM (inactive),–,> 100 µM (inactive),–,43.6 µM (inactive),–
O=C(CSCC(=O)N/N=C\c1cccc([N+](=O)[O-])c1)N/N=C\c1cccc([N+](=O)[O-])c1,> 100 µM (inactive),37.3 µM (inactive),23.3 µM (inactive),54.1 µM (inactive),21 µM (inactive),49.8 µM (inactive),25.5,> 100 µM (inactive),30.9 µM (inactive),23.1 µM (inactive),–,2.01 µM (inactive),68.9 µM (inactive),22.9 µM (inactive),18.9 µM (inactive),14.2 µM (inactive),27.7 µM (inactive),11.5 µM (inactive),–

# Source: ChEMBL document CHEMBL1201862, “PubChem BioAssay data set” (2004)
